Reference: patent publication US6737383B1, “Herbicidal oxadiazolidines” (priority 1999, dated 2004)

Experiments:
[1] = test system: field bindweed; assay: Test C postemergence field bindweed; format: in vivo, Convolvulus arvensis; conditions: 0 to 100 scale, 0 no effect, 100 complete control
Method in brief: (§1)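 Compounds in a non-phytotoxic solvent mixture with surfactant were sprayed postemergence on greenhouse-grown plants sized for treatment, in 60:40 sandy loam soil:potting mix. After about 14 to 21 days, injury was rated visually against untreated controls on a 0–100 scale (0 no effect, 100 complete control).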

[2] = test system: surinam grass; assay: Test C postemergence surinam grass; format: in vivo, Brachiaria decumbens; conditions: 0 to 100 scale, 0 no effect, 100 complete control
Method: (§2) Compounds evaluated in this test were formulated in a non-phytotoxic solvent mixture which included a surfactant and applied to plants that were grown for various periods of time before treatment (postemergence application). A mixture of sandy loam soil and greenhouse potting mix in a 60:40 ratio was used for the postemergence test.
(§3) Plantings of these crops and weed species were adjusted to produce plants of appropriate size for the postemergence test. All plant species were grown using normal greenhouse practices. Crop and weed species include arrowleaf sida (Sida rhombifolia), barnyardgrass (Echinochloa crus-galli), cocklebur (Xanthium strumarium), common ragweed (Ambrosia elatior), corn (Zea mays), cotton (Gossypium hirsutum), eastern black nightshade (Solanum ptycanthum), fall panicum (Panicum dichotomiflorum), field bindweed (Convolvulus arvensis), giant foxtail (Setaria faberii), hairy beggarticks (Bidens pilosa), ivyleaf morningglory (Ipomoea hederacea), johnsongrass (Sorghum halepense), ladysthumb smartweed (Polygonum persicaria), lambsquarters (Chenopodium album), large crabgrass (Digitaria sanguinalis), purple nutsedge (Cyperus rotundus), redroot pigweed (Amaranthus retroflexus), soybean (Glycine max), surinam grass (Brachiaria decumbens), velvetleaf (Abutilon theophrasti) and wild poinsettia (Euphorbia heterophylla).
(§4) Treated plants and untreated controls were maintained in a greenhouse for approximately 14, to 21 days, after which all treated plants were compared to untreated controls and visually evaluated. Plant response ratings, summarized in Table C, were based upon a 0 to 100 scale where 0 was no effect and 100 was complete control. A dash response (−) means no test result.

[3] = test system: barnyardgrass; assay: Test C postemergence barnyardgrass; format: in vivo, Echinochloa crus-galli; conditions: 0 to 100 scale, 0 no effect, 100 complete control
Method: as §2, §3, §4

[4] = test system: Amaranthus rudis (AMATA); assay: Test F preemergence, alone and in mixture with rimsulfuron, AMATA; format: in vivo; conditions: 21 days after treatment, 0-100 scale
Method in brief: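 Greenhouse pot plants treated preemergence with compound at 70 and 105 g ai/ha, rimsulfuron at 8.8 and 17.5 g ai/ha, or mixtures; 27° C day/21° C night, 14 hour photoperiod. Injury scored at 21 days after treatment against solvent-sprayed controls; expected additive effect of mixtures calculated by Colby's equation.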

[5] = test system: hairy beggarticks; assay: Test C postemergence hairy beggarticks; format: in vivo, Bidens pilosa; conditions: 0 to 100 scale, 0 no effect, 100 complete control
Method in brief: as §1

[6] = test system: eastern black nightshade; assay: Test C postemergence eastern black nightshade; format: in vivo, Solanum ptycanthum; conditions: 0 to 100 scale, 0 no effect, 100 complete control
Method in brief: as §1

[7] = test system: giant foxtail; assay: Test C postemergence giant foxtail; format: in vivo, Setaria faberii; conditions: 0 to 100 scale, 0 no effect, 100 complete control
Method in brief: as §1

[8] = test system: Green foxtail; assay: Test D green foxtail; format: in vivo
Method in brief: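 Visual injury ratings, 0 = no injury to 100 = complete control, taken 14 to 21 days after treatment. Test chemicals were in a surfactant-containing non-phytotoxic solvent; preemergence treatments went onto the sandy loam surface of seeded greenhouse pots within one day of sowing.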

[9] = test system: common ragweed; assay: Test C postemergence common ragweed; format: in vivo, Ambrosia elatior; conditions: 0 to 100 scale, 0 no effect, 100 complete control
Method: as §2, §3, §4

[10] = test system: Panicum dichotomiflorum (PANDI); assay: Test F preemergence, alone and in mixture with rimsulfuron, PANDI; format: in vivo; conditions: 21 days after treatment, 0-100 scale
Method: (§5) Abutilon theophrasti (ABUTH), Chenopodium album (CHEAL), Amaranthus rudis (AMATA), Setaria faberii (SETFA), Panicum dichotomiflorum (PANDI), and Digitaria sanguinalis (DIGSA) were grown from seed in pots of an artificial potting mixture in a greenhouse. Compounds of the present invention were applied at 70 and 105 g ai/ha preemergence. Rimsulfuron was applied at 8.8 and 17.5 g ai/ha. Mixtures of the compounds of the present invention and rimsulfuron were also applied.
(§6) Following application, the plants were maintained by watering as needed. A fertilizer solution of Peter's 20-20-20 (10 pounds/5 gallons of water) plus Sprint 330, a Iron Chelate micronutrient, (113.5 grams/5 gallons of water) was injected into the water with an Anderson fertilizer injection system to provide approximately 219 ppm of nitrogen with each watering. Artificial lighting was used to supplement natural light to produce a 14 hour photoperiod and: an additional one hour light period was used between 1:00 am to 2:00 am for a night interruption. Greenhouse temperatures were targeted for 27° C. in the day and 21° C. at night. At 21 days after treatment, all plants were evaluated for injury as compared to control plants that were sprayed only with non-phytotoxic solvent.
(§7) Colby's equation was used to calculate the expected additive herbicidal effect of the mixtures of Compound 21 and the mixture partners listed above. […]

[11] = test system: cotton; assay: Test C postemergence cotton; format: in vivo, Gossypium hirsutum; conditions: 0 to 100 scale, 0 no effect, 100 complete control
Method: as §2, §3, §4

[12] = test system: Digitaria sanguinalis (DIGSA); assay: Test F preemergence, alone and in mixture with rimsulfuron, DIGSA; format: in vivo; conditions: 21 days after treatment, 0-100 scale
Method: as §5, §6, §7

[13] = Alone: Cmpd. rate 70, Rimsulfuron 0
[14] = Alone: Cmpd. rate 105, Rimsulfuron 0
[15] = Rate 64 g/ha, Preemergence; 0 to 100 scale, 0 no injury, 100 complete control
[16] = Rate 125 g/ha, Preemergence; 0 to 100 scale, 0 no injury, 100 complete control

CC(C)N(C(=O)n1oc(=O)n(C(C)C)c1=O)c1ccccc1 [Compound 113]
Plant response rating Field bindweed ([1]; Rate 140 g/ha): 0 | Plant response rating Field bindweed ([1]; Rate 280 g/ha): 0 | Plant response rating Field bindweed ([1]; Rate 560 g/ha): 50 | Plant response rating Field bindweed ([1]; Rate 1120 g/ha): 50 | Plant response rating, Surinam grass ([2]; Rate 140 g/ha): 0 | Plant response rating, Surinam grass ([2]; Rate 280 g/ha): 40 | Plant response rating, Surinam grass ([2]; Rate 560 g/ha): 90 | Plant response rating, Surinam grass ([2]; Rate 1120 g/ha): 90 | Plant response rating, Barnyardgrass ([3]; Rate 140 g/ha): 80 | Plant response rating, Barnyardgrass ([3]; Rate 280 g/ha): 80 | Plant response rating, Barnyardgrass ([3]; Rate 560 g/ha): 85 | Plant response rating, Barnyardgrass ([3]; Rate 1120 g/ha): 95 | AMATA Observed [4, 13]: 35% | AMATA Observed [4, 14]: 25% | Plant response rating H. beggarticks ([5]; Rate 140 g/ha): 5 | Plant response rating H. beggarticks ([5]; Rate 280 g/ha): 30 | Plant response rating H. beggarticks ([5]; Rate 560 g/ha): 30 | Plant response rating H. beggarticks ([5]; Rate 1120 g/ha): 50 | Plant response rating E. blacknightsh ([6]; Rate 140 g/ha): 50 | Plant response rating E. blacknightsh ([6]; Rate 280 g/ha): 50 | Plant response rating E. blacknightsh ([6]; Rate 1120 g/ha): 95 | Plant response rating, Giant foxtail ([7]; Rate 140 g/ha): 20 | Plant response rating, Giant foxtail ([7]; Rate 280 g/ha): 70 | Plant response rating, Giant foxtail ([7]; Rate 560 g/ha): 80 | Plant response rating, Giant foxtail ([7]; Rate 1120 g/ha): 80 | Plant response rating, Green foxtail ([8]; Preemergence; Rate 16 g/ha; 0 to 100 scale, 0 no injury, 100 complete control): 80 | Plant response rating, Green foxtail ([8]; Preemergence; Rate 32 g/ha; 0 to 100 scale, 0 no injury, 100 complete control): 98 | Plant response rating, Green foxtail ([8]; Rate 16 g/ha; Preemergence; 0 to 100 scale, 0 no injury, 100 complete control): 80 | Plant response rating, Green foxtail ([8]; Rate 32 g/ha; Preemergence; 0 to 100 scale, 0 no injury, 100 complete control): 70 | Green foxtail plant response rating [8, 15]: 100 | Plant response rating, Green foxtail [8, 15]: 100 | Green foxtail plant response rating [8, 16]: 100 | Plant response rating, Green foxtail [8, 16]: 100 | Plant response rating Common ragweed ([9]; Rate 140 g/ha): 5 | Plant response rating Common ragweed ([9]; Rate 280 g/ha): 5 | Plant response rating Common ragweed ([9]; Rate 1120 g/ha): 20 | PANDI Observed [10, 13]: 100% | PANDI Observed [10, 14]: 95% | Plant response rating Cotton ([11]; Rate 140 g/ha): 10 | Plant response rating Cotton ([11]; Rate 280 g/ha): 15 | Plant response rating Cotton ([11]; Rate 560 g/ha): 50 | Plant response rating Cotton ([11]; Rate 1120 g/ha): 80 | DIGSA Observed [12, 13]: 95% | DIGSA Observed [12, 14]: 70%
